One assay deals with T1, OGA (Homo sapiens, UniProt O60502).
T1 construct: endogenous in cells; host or cells: HEK293 cells inducible for P301L mutant human Tau (2N4R)
T1 sequence (O60502 1-916): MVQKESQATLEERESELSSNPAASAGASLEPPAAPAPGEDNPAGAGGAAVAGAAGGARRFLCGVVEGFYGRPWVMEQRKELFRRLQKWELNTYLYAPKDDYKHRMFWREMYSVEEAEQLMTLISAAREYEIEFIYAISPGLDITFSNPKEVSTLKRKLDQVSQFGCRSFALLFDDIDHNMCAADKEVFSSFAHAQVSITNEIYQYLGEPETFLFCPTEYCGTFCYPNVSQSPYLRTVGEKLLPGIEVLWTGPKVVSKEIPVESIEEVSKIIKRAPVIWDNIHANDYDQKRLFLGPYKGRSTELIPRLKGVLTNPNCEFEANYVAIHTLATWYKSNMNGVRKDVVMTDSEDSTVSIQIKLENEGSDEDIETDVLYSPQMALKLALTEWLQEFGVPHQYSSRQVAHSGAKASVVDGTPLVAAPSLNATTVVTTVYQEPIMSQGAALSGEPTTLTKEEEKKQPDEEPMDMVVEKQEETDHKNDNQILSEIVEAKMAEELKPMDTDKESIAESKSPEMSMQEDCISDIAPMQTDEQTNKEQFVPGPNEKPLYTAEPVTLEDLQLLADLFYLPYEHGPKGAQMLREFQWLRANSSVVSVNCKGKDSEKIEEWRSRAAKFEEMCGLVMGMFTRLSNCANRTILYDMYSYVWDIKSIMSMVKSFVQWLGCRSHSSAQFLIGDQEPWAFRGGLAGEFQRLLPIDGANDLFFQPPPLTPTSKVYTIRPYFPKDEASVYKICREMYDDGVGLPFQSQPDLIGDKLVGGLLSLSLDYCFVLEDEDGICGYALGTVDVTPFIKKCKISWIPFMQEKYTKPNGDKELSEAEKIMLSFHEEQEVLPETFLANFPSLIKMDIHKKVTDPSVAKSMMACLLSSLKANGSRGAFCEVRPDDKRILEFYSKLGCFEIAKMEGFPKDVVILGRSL
The assay can be described thus: OGA cellular assay (ICC detection of O-GlcNAcylated proteins in HEK293 cells inducible for P301L mutant human Tau). Format: cell-based. The conditions noted are these: HEK293, HEK293 cells inducible for P301L mutant human Tau, maximal effect; Thiamet G 200 uM as maximum. As to the method:
HEK293 cells inducible for P301L mutant human Tau (isoform 2N4R) were established at Janssen. Thiamet-G was used for both plate validation (high control) and as reference compound (reference EC50 assay validation). OGA inhibition is evaluated through the immunocytochemical (ICC) detection of O-GlcNAcylated proteins by the use of a monoclonal antibody (CTD110.6; Cell Signaling, #9875) detecting 0-GlcNAcylated residues as previously described (Dorfmueller et al. 2010 Chemistry & biology, 17:1250). Inhibition of OGA will result in an increase of O-GlcNAcylated protein levels resulting in an increased signal in the experiment. Cell nuclei are stained with Hoechst to give a cell culture quality control and a rough estimate of immediate compounds toxicity, if any. ICC pictures are imaged with a Perkin Elmer Opera Phenix plate microscope and quantified with the provided software Perkin Elmer Harmony 4.1.
Cells were propagated in DMEM high Glucose (Sigma, #D5796) following standard procedures. 2 days before the cell assay cells are split, counted and seeded in Poly-D-Lysine (PDL) coated 96-wells (Greiner, #655946) plate at a cell density of 12,000 cells per cm^2 (4,000 cells per well) in 100 μl of Assay Medium (Low Glucose medium is used to reduce basal levels of GlcNAcylation) (Park et al. 2014 The Journal of biological chemistry 289:13519). At the day of compound test medium from assay plates was removed and replenished with 90 μl of fresh Assay Medium. 10 μl of compounds at a 10 fold final concentration were added to the wells. Plates were centrifuged shortly before incubation in the cell incubator for 6 hours. DMSO concentration was set to 0.2%. Medium is discarded by applying vacuum. For staining of cells medium was removed and cells washed once with 100 μl D-PBS (Sigma, #D8537). From next step onwards unless other stated assay volume was always 50 μl and incubation was performed without agitation and at room temperature. Cells were fixed in 50 μl of a 4% paraformaldehyde (PFA, Alpha aesar, #043368) PBS solution for 15 minutes at room temperature. […] Before analysis samples were washed 2 times manually for 5 minutes in ICC base buffer.
Imaging is performed using Perkin Elmer Phenix Opera using a water 20× objective and recording 9 fields per well. Intensity readout at 488 nm is used as a measure of O-GlcNAcylation level of total proteins in wells. To assess potential toxicity of compounds nuclei were counted using the Hoechst staining. IC50-values are calculated using parametric non-linear regression model fitting. As a maximum inhibition Thiamet G at a 200 uM concentration is present on each plate. In addition, a concentration response of Thiamet G is calculated on each plate.
`COc1cc(C[C@H]2CCCN(C(C)c3ccc4c(n3)OCCO4)C2)cc(C)n1` (mixture of isomers) [Product 63] had a maximal response (Emax) of 69%.
`Cc1cc(NCC2CCCN(C(C)c3cc4c(cc3F)OCCO4)C2)cc(C(F)(F)F)n1` (centres unmarked) [Product 99] had an Emax of 65%.
Still for that read-out and setting: next, `Cc1cc(C[C@H]2CCCN([C@@H](C)c3ccc4c(n3)OCCO4)C2)cc(C)n1` (single isomer, unassigned) [Product 46]: 90%; `Cc1cc([C@@H]2CCCN(C(C)c3nc4c(cc3F)OCCO4)C2)cc(C)n1` (single isomer, unassigned) [Product 165]: 80%.
For the molecule `Cc1cc([C@H]2CCCN([C@H](C)c3ccc4c(n3)OCCO4)C2)cc(C)n1` (single isomer, unassigned) [Product 158], the Emax worked out at 89%.
Same read-out and setting: next, `CC(c1nc2c(cc1F)OCCO2)N1CCC[C@@H](CNc2ccc(F)cc2)C1` (some centres unmarked) [Product 195]: 112%; `Cc1cc(OC[C@H]2CCCN(C(C)c3nc4c(cc3F)CCO4)C2)cc(C)n1` (single isomer, unassigned) [Product 179]: 72%.
The same measure, in the same setting: under `Cc1cc(OC[C@H]2CCCN(C(C)c3nc4c(cc3F)OCCO4)C2)cc(C)n1` (some centres unmarked) [Product 152] stands 94%.

Staying with this assay, now noted: HEK293 cells inducible for P301L mutant human Tau, 6 hours incubation; read-out: Cellular hOGA; pEC50 (converted).
Regarding `COc1cc(C[C@H]2CCCN(C(C)c3ccc4c(n3)OCCO4)C2)cc(C)n1` (mixture of isomers) [Product 63], the EC50 was 31.6 nM.
On the same count and under the same terms, under `Cc1cc(NCC2CCCN(C(C)c3cc4c(cc3F)OCCO4)C2)cc(C(F)(F)F)n1` (centres unmarked) [Product 99] stands 25.1 nM.
The same measure, in the same setting: next, `Cc1cc(C[C@H]2CCCN([C@@H](C)c3ccc4c(n3)OCCO4)C2)cc(C)n1` (single isomer, unassigned) [Product 46]: 15.8 nM; `Cc1cc([C@@H]2CCCN(C(C)c3nc4c(cc3F)OCCO4)C2)cc(C)n1` (single isomer, unassigned) [Product 165]: 100 nM; `Cc1cc([C@H]2CCCN([C@H](C)c3ccc4c(n3)OCCO4)C2)cc(C)n1` (single isomer, unassigned) [Product 158]: 39.8 nM.
Still for that read-out and setting: next, `CC(c1nc2c(cc1F)OCCO2)N1CCC[C@@H](CNc2ccc(F)cc2)C1` (some centres unmarked) [Product 195]: 79.4 nM; `Cc1cc(OC[C@H]2CCCN(C(C)c3nc4c(cc3F)CCO4)C2)cc(C)n1` (single isomer, unassigned) [Product 179]: 251 nM.
As for `Cc1cc(OC[C@H]2CCCN(C(C)c3nc4c(cc3F)OCCO4)C2)cc(C)n1` (some centres unmarked) [Product 152], the EC50 was 3.98 nM.

Another assay deals with T2, recombinant human Meningioma Expressed Antigen 5 (MGEA5), also referred to as O-GlcNAcase (OGA) (Homo sapiens, UniProt O60502).
T2 construct: Full length OGA enzyme was purchased at OnGene (cat #TP322411); purchased OnGene (so in the source)
T2 sequence (O60502 1-916): T1 sequence (O60502 1-916)
In words: OGA biochemical assay (inhibition of FM-GlcNAc hydrolysis, fluorescence). The conditions noted are these: maximal effect, read-out: Enzymatic Emax (%). The text has this: The assay is based on the inhibition of the hydrolysis of fluorescein mono-β-D-N-Acetyl-Glucosamine (FM-GlcNAc) (Mariappa et al. 2015, Biochem J 470:255) by the recombinant human Meningioma Expressed Antigen 5 (MGEA5), also referred to as O-GlcNAcase (OGA). The hydrolysis FM-GlcNAc (Marker Gene technologies, cat #M1485) results in the formation of β-D-N-glucosamineacetate and fluorescein. The fluorescence of the latter can be measured at excitation wavelength 485 nm and emission wavelength 538 nm. An increase in enzyme activity results in an increase in fluorescence signal. Full length OGA enzyme was purchased at OnGene (cat #TP322411). The enzyme was stored in 25 mM Tris.HCl, pH 7.3, 100 mM glycine, 10% glycerol at −20° C. Thiamet G and GlcNAcStatin were tested as reference compounds (Yuzwa et al. 2008 Nature Chemical Biology 4:483; Yuzwa et al. 2012 Nature Chemical Biology 8:393). The assay was performed in 200 mM Citrate/phosphate buffer supplemented with 0.005% Tween-20. 35.6 g Na2HPO42H2O (Sigma, #C0759) were dissolved in 1 L water to obtain a 200 mM solution. 19.2 g citric acid (Merck, #1.06580) was dissolved in 1 L water to obtain a 100 mM solution. pH of the sodiumphosphate solution was adjusted with the citric acid solution to 7.2. The buffer to stop the reaction consists of a 500 mM Carbonate buffer, pH 11.0. 734 mg FM-GlcNAc were dissolved in 5.48 mL DMSO to obtain a 250 mM solution and was stored at −20° C. OGA was used at a 2 nM concentration and FM-GlcNAc at a 100 uM final concentration. Dilutions were prepared in assay buffer.
50 nl of a compound dissolved in DMSO was dispensed on Black Proxiplate TM 384 Plus Assay plates (Perkin Elmer, #6008269) and 3 μl fl-OGA enzyme mix added subsequently. Plates were pre-incubated for 60 min at room temperature and then 2 μl FM-GlcNAc substrate mix added. […] Plates were briefly centrifuged for 1 min at 1000 rpm and incubate at room temperature for 6 h. To stop the reaction 5 μl STOP buffer were added and plates centrifuge again 1 min at 1000 rpm. Fluorescence was quantified in the Thermo Scientific Fluoroskan Ascent or the PerkinElmer EnVision with excitation wavelength 485 nm and emission wavelength 538 nm.
For analysis a best-fit curve is fitted by a minimum sum of squares method. From this an IC50 value and Hill coefficient was obtained. High control (no inhibitor) and low control (saturating concentrations of standard inhibitor) were used to define the minimum and maximum values.
On to `COc1cc(C[C@H]2CCCN(C(C)c3ccc4c(n3)OCCO4)C2)cc(C)n1` (mixture of isomers) [Product 63], for which the Emax amounted to 101%.
The same measure, in the same setting: next, `Cc1cc(NCC2CCCN(C(C)c3cc4c(cc3F)OCCO4)C2)cc(C(F)(F)F)n1` (centres unmarked) [Product 99]: 105%; `Cc1cc(C[C@H]2CCCN([C@@H](C)c3ccc4c(n3)OCCO4)C2)cc(C)n1` (single isomer, unassigned) [Product 46]: 101%.
On to `Cc1cc([C@@H]2CCCN(C(C)c3nc4c(cc3F)OCCO4)C2)cc(C)n1` (single isomer, unassigned) [Product 165], for which the Emax amounted to 100%.
As to `Cc1cc([C@H]2CCCN([C@H](C)c3ccc4c(n3)OCCO4)C2)cc(C)n1` (single isomer, unassigned) [Product 158], the Emax is 102%.
`CC(c1nc2c(cc1F)OCCO2)N1CCC[C@@H](CNc2ccc(F)cc2)C1` (some centres unmarked) [Product 195]: the Emax amounted to 100%.
On the same count and under the same terms, under `Cc1cc(OC[C@H]2CCCN(C(C)c3nc4c(cc3F)CCO4)C2)cc(C)n1` (single isomer, unassigned) [Product 179] stands 100%; under `Cc1cc(OC[C@H]2CCCN(C(C)c3nc4c(cc3F)OCCO4)C2)cc(C)n1` (some centres unmarked) [Product 152], 102%.

The assay is the same for the next values; noted with them: read-out: Enzymatic hOGA, pIC50 (converted).
Consider `COc1cc(C[C@H]2CCCN(C(C)c3ccc4c(n3)OCCO4)C2)cc(C)n1` (mixture of isomers) [Product 63], for which the IC50 is 7.94 nM.
On the same count and under the same terms, under `Cc1cc(NCC2CCCN(C(C)c3cc4c(cc3F)OCCO4)C2)cc(C(F)(F)F)n1` (centres unmarked) [Product 99] stands 5.25 nM; under `Cc1cc(C[C@H]2CCCN([C@@H](C)c3ccc4c(n3)OCCO4)C2)cc(C)n1` (single isomer, unassigned) [Product 46], 3.16 nM.
The same measure, in the same setting: next, `Cc1cc([C@@H]2CCCN(C(C)c3nc4c(cc3F)OCCO4)C2)cc(C)n1` (single isomer, unassigned) [Product 165]: 63.1 nM; `Cc1cc([C@H]2CCCN([C@H](C)c3ccc4c(n3)OCCO4)C2)cc(C)n1` (single isomer, unassigned) [Product 158]: 7.94 nM; `CC(c1nc2c(cc1F)OCCO2)N1CCC[C@@H](CNc2ccc(F)cc2)C1` (some centres unmarked) [Product 195]: 15.8 nM.
Consider `Cc1cc(OC[C@H]2CCCN(C(C)c3nc4c(cc3F)CCO4)C2)cc(C)n1` (single isomer, unassigned) [Product 179], for which the IC50 is 200 nM.
Still for that read-out and setting: next, `Cc1cc(OC[C@H]2CCCN(C(C)c3nc4c(cc3F)OCCO4)C2)cc(C)n1` (some centres unmarked) [Product 152]: 3.98 nM.

The term Emax denotes the size of the effect at its maximum, as opposed to the concentration needed.
